US9783552B2, “Soluble guanylate cyclase activators” (MERCK SHARP & DOHME CORP., priority 2013, dated 2017)

Molecular target: T1, sGC α1/β1 heterodimer (Homo sapiens, UniProt Q02108+Q02153)
T1 construct: expressed in transfected cells
T1 sequence (Q02108 1-690): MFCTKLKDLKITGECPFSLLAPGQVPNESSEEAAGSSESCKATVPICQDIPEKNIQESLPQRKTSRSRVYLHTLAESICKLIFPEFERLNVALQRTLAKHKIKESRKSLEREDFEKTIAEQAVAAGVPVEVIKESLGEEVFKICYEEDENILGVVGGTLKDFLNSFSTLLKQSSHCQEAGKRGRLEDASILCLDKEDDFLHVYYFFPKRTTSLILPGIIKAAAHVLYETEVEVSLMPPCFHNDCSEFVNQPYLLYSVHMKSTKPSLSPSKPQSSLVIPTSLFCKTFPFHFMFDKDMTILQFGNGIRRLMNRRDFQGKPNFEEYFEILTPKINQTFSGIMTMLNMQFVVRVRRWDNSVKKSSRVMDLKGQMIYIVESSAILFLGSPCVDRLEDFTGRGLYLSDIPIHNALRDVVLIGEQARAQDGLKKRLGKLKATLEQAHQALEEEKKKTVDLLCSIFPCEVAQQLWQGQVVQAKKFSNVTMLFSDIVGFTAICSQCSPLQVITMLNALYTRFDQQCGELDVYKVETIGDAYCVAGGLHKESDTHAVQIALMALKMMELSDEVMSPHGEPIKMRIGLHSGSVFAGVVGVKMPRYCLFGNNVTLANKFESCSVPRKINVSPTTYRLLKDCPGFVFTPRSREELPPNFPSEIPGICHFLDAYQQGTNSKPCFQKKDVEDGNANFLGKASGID
T1 sequence (Q02153 1-619): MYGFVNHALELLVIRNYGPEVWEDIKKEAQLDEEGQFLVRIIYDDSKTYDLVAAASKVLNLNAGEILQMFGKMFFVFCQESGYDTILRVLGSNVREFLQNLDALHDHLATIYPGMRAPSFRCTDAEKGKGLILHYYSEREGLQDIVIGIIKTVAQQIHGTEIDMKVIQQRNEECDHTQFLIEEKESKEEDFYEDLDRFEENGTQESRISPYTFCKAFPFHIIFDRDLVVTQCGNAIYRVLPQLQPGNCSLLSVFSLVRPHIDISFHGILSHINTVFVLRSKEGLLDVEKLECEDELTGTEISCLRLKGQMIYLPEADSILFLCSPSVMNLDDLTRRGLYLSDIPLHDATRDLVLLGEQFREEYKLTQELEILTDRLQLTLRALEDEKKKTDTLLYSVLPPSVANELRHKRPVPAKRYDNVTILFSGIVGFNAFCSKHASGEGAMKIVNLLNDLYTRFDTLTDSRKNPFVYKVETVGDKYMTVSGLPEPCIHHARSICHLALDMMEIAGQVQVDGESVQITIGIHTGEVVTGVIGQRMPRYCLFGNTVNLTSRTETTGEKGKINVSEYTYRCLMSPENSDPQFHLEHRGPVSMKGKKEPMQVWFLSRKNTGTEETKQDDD
Experiment: Cell-Based sGC Functional Assay (CASA Assay)
Settings: CHO-K1/sGC cells; for EC50: intracellular cGMP by HTRF, 1 hr at 37° C., IP from 4P fit, presence or absence of 1 μM DETA-NO not given; for Emax: cGMP as percentage of maximum cGMP production of Compound A (=100% activation), read-out: % ACT (percent activation)
Source text: Biological Assays: Cell-Based sGC Functional Assay (CASA Assay)
sGC is a heme-containing enzyme that converts GTP to secondary messenger cGMP. Increases in cGMP levels affect several physiological processes including vasorelaxation through multiple downstream pathways. […] Heme-dependent activators (HDAs) preferentially activate sGC containing a ferrous heme group. To determine the effect of sGC activators on enzyme activity, the CASA assay was developed to monitor the generation of cGMP in a cell line that stably expresses the heterodimeric sGC protein.
A CHO-K1 cell line stably expressing the sGC α1/β1 heterodimer was generated using a standard transfection protocol. CHO-K1 cells were transfected with plasmids pIREShyghsGCα1 and pIRESneo-hsGCβ1 simultaneously using FUGENE reagent. Clones that stably express both subunits were selected with hygromycin and neomycin for ˜2 weeks. Clone #7 was chosen for the assay and was designated CHO-K1/sGC. CHO-K1/sGC cells were maintained in F-K12 medium containing 10% heat-inactivated Fetal Bovine Serum (FBS), 100 μg/mL penicillin/streptomycin, 0.5 mg/mL hygromycin and 0.25 mg/mL G418. The cells were then cryopreserved in LN2. On the day of the assay, cells were thawed and resuspended in EBSS Assay Buffer (EAB, Sigma, E3024) supplemented with 5 mM MgCl2, 10 mM HEPES (4-(2-hydroxyethyl)piperazine-1-ethanesulfonic acid) and 0.05% BSA (bovine serum albumin) and cell density was then adjusted to 4×10^5/mL with EAB. IBMX (3-isobutyl-1-methylxanthin, 0.5 mM) was added to inhibit degradation of cGMP. Compounds were diluted from DMSO stock solutions and added to the assay at a final DMSO concentration of 2.5%. Cells were incubated with compounds in the presence and absence of 1 μM of Diethylenetriamine/nitric oxide adduct (DETA-NO; Sigma, 17018) for 1 hr at 37° C. At the end of the incubation period, the reaction was terminated and the cells were lysed with the detection reagents from Cisbio Kits. The level of intracellular cGMP was determined using an HTRF-based assay kit (CisBio, 62GM2PEC), which detects the displacement of a fluorescence labeled cGMP from its specific antibody. The cGMP produced by test compounds was directly compared to the maximum cGMP production (this value was set to equal 100% activation) of the published sGC-HDA Compound A:
[drawing 123] (Example 1 in WO 2010/065275, published Jun. 10, 2010). The test compounds' activity was then expressed as a percentage of Compound A, the standard in every experiment. This percent activation was calculated either in the presence or absence of DETA-NO which was then plotted. IP and maximum fold induction was derived using ADA analysis software for 4P fit.

| Structure (SMILES) | EC50 [nM] | Emax [%] |
| --- | --- | --- |
| Cn1ncc2c(-c3nc(N)c4c(n3)NC(=O)C4(C)NC(=O)C3CC3)nc(CCC(F)(F)C(F)(F)F)nc21 (stereo not shown) [Example 53, N-(4-Amino-5-methyl-2-(1-methyl-6-(3,3,4,4,4-pentafluorobutyl)-1H-pyrazolo[3,4-d]pyrimidin-4-yl)-6-oxo-6,7-dihydro-5H-pyrrolo[2,3-d]pyrimidin-5-yl)cyclopropanecarboxamide] | 869 | 104 |
| [2H]C([2H])([2H])n1nc(C2CC2)c2c(-c3nc(N)c4c(n3)NC(=O)C4(C)c3ccc(F)cc3)nc(CCC(F)(F)C(F)(F)F)nc21 (stereo not shown) [Example 59, 4-Amino-2-(3-cyclopropyl-6-(3,3,4,4,4-pentafluorobutyl)-1-trideuteriomethyl-1H-pyrazolo[3,4-d]pyrimidin-4-yl)-5-(4-fluorophenyl)-5-methyl-5H-pyrrolo[2,3-d]pyrimidin-6(7H)-one] | 299 | 94 |
| Cn1ncc2c(-c3nc(N)c4c(n3)NC(=O)C4(C)N)nc(CCC(F)(F)C(F)(F)F)nc21 (single isomer, unassigned) [Example 50, 4,5-Diamino-5-methyl-2-(1-methyl-6-(3,3,4,4,4-pentafluorobutyl)-1H-pyrazolo[3,4-d]pyrimidin-4-yl)-5H-pyrrolo[2,3-d]pyrimidin-6(7H)-one] | 1240 | 101 |
| [2H]C([2H])([2H])n1ncc2c(-c3nc(N)c4c(n3)NC(=O)C4(C)C3CC3)nc(CCC(F)(F)C(F)(F)F)nc21 (single isomer, unassigned) [Example 17, 4-Amino-5-cyclopropyl-5-methyl-2-(6-(3,3,4,4,4-pentafluorobutyl)-1-trideuteriomethyl-1H-pyrazolo[3,4-d]pyrimidin-4-yl)-5H-pyrrolo[2,3-d]pyrimidin-6(7H)-one] | 286 | 104 |
| CC1(c2ccccc2)C(=O)Nc2nc(-c3nc(CCC(F)(F)C(F)(F)F)nc4[nH]ccc34)nc(N)c21 (single isomer, unassigned) [Example 65, 4-Amino-5-methyl-2′-(3,3,4,4,4-pentafluorobutyl)-5-phenyl-5H,7′H-[2,4′-bipyrrolo[2,3-d]pyrimidin]-6(7H)-one] | 255 | 102 |
| CC1(c2ccc(F)cc2)C(=O)Nc2nc(-c3nc(CCC(F)(F)C(F)(F)F)nc4[nH]ncc34)nc(N)c21 (single isomer, unassigned) [Example 8, 4-Amino-5-(4-fluorophenyl)-5-methyl-2-(6-(3,3,4,4,4-pentafluorobutyl)-1H-pyrazolo[3,4-d]pyrimidin-4-yl)-5H-pyrrolo[2,3-d]pyrimidin-6(7H)-one] | 341 | 109 |

The next compounds have a lower EC50 than those just listed; values first:

| EC50 [nM] | Emax [%] | Structure (SMILES) |
| --- | --- | --- |
| 245 | 84 | Cn1ncc2c(-c3nc(N)c4c(n3)NC(=O)C4(C)C(N)=O)nc(CCC(F)(F)C(F)(F)F)nc21 (single isomer, unassigned) [Example 30, 4-Amino-5-methyl-2-(1-methyl-6-(3,3,4,4,4-pentafluorobutyl)-1H-pyrazolo[3,4-d]pyrimidin-4-yl)-6-oxo-6,7-dihydro-5H-pyrrolo[2,3-d]pyrimidine-5-carboxamide] |
| 209 | 110 | [2H]C([2H])([2H])n1ncc2c(-c3nc(N)c4c(n3)NC(=O)C4(C)c3ccc(O)cc3)nc(CCC(F)(F)C(F)(F)F)nc21 (single isomer, unassigned) [Example 43, 4-Amino-5-(4-hydroxyphenyl)-5-methyl-2-(6-(3,3,4,4,4-pentafluorobutyl)-1-trideuteriomethyl-1H-pyrazolo[3,4-d]pyrimidin-4-yl)-5H-pyrrolo[2,3-d]pyrimidin-6(7H)-one] |
| 171 | 122 | Cn1ncc2c(-c3nc(N)c4c(n3)NC(=O)C4(C)C3CCCCC3)nc(CCC(F)(F)C(F)(F)F)nc21 (single isomer, unassigned) [Example 18, 4-Amino-5-cyclohexyl-5-methyl-2-(1-methyl-6-(3,3,4,4,4-pentafluorobutyl)-1H-pyrazolo[3,4-d]pyrimidin-4-yl)-5H-pyrrolo[2,3-d]pyrimidin-6(7H)-one] |
| 156 | 69 | Cn1nnc2c(-c3nc(N)c4c(n3)NC(=O)C4(C)c3ccc(F)cc3)nc(Cc3cccc(F)c3F)nc21 (single isomer, unassigned) [Example 66] |
| 135 | 131 | [2H]C([2H])([2H])n1ncc2c(-c3nc(N)c4c(n3)NC(=O)C4(C(=O)NCC)C3CC3)nc(CCC(F)(F)C(F)(F)F)nc21 (single isomer, unassigned) [Example 29, 4-Amino-5-cyclopropyl-N-ethyl-2-(6-(3,3,4,4,4-pentafluorobutyl)-1-trideuteriomethyl-1H-pyrazolo[3,4-d]pyrimidin-4-yl)-6-oxo-6,7-dihydro-5H-pyrrolo[2,3-d]pyrimidine-5-carboxamide] |
| 105 | 120 | C#CC1(C2CC2)C(=O)Nc2nc(-c3nc(CCC(F)(F)C(F)(F)F)nc4c3cnn4C)nc(N)c21 (single isomer, unassigned) [Example 24, 4-Amino-5-cyclopropyl-5-ethynyl-2-(1-methyl-6-(3,3,4,4,4-pentafluorobutyl)-1H-pyrazolo[3,4-d]pyrimidin-4-yl)-5H-pyrrolo[2,3-d]pyrimidin-6(7H)-one] |
| 53 | 119 | CCn1ncc2c(-c3nc(N)c4c(n3)NC(=O)C4(C)c3ccc(F)cc3)nc(CCC(F)(F)C(F)(F)F)nc21 (single isomer, unassigned) [Example 19, 4-Amino-2-(1-ethyl-6-(3,3,4,4,4-pentafluorobutyl)-1H-pyrazolo[3,4-d]pyrimidin-4-yl)-5-(4-fluorophenyl)-5-methyl-5H-pyrrolo[2,3-d]pyrimidin-6(7H)-one] |
| 49 | 80 | [2H]C([2H])([2H])n1ncc2c(-c3nc(N)c4c(n3)NC(=O)C4(CCCC)C3CC3)nc(CCC(F)(F)C(F)(F)F)nc21 (single isomer, unassigned) [Example 25, 4-Amino-5-butyl-5-cyclopropyl-2-(6-(3,3,4,4,4-pentafluorobutyl)-1-trideuteriomethyl-1H-pyrazolo[3,4-d]pyrimidin-4-yl)-5H-pyrrolo[2,3-d]pyrimidin-6(7H)-one] |
